Assay results: PubChem BioAssay (NCI)
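Each compound was tested at five concentrations against cells in 96-well plates for 48 hours. GI50: concentration for 50% inhibition of growth. TGI: concentration producing complete growth inhibition.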

What was measured:
Assay in all cases: NCI tumour cell line growth inhibition, 48 h
[1] = system: 786-0 renal
[2] = system: A498 renal
[3] = system: A549 NSCLC
[4] = system: ACHN renal
[5] = system: BT-549 breast
[6] = system: CAKI-1 renal
[7] = system: CCRF-CEM leukemia
[8] = system: COLO 205 colon
[9] = system: DU-145 prostate
[10] = system: EKVX NSCLC
[11] = system: HCC-2998 colon
[12] = system: HCT-116 colon
[13] = system: HCT-15 colon
[14] = system: HL-60(TB) leukemia
[15] = system: HOP-62 NSCLC
[16] = system: HS 578T breast
[17] = system: HT29 colon
[18] = system: IGROV1 ovarian
[19] = system: K-562 leukemia
[20] = system: KM12 colon
[21] = system: LOX IMVI melanoma
[22] = system: M14 melanoma
[23] = system: MALME-3M melanoma
[24] = system: MCF7 breast
[25] = system: MDA-MB-231 breast
[26] = system: MDA-MB-435
[27] = system: MOLT-4 leukemia
[28] = system: NCI-H226 lung
[29] = system: NCI-H23 lung
[30] = system: NCI-H460 lung
[31] = system: NCI-H522 lung
[32] = system: NCI/ADR-RES ovarian
[33] = system: OVCAR-3 ovarian
[34] = system: OVCAR-4 ovarian
[35] = system: OVCAR-5 ovarian
[36] = system: OVCAR-8 ovarian
[37] = system: PC-3 prostate
[38] = system: RPMI-8226 leukemia
[39] = system: RXF 393 renal
[40] = system: SF-268 CNS
[41] = system: SF-295 CNS
[42] = system: SF-539 CNS
[43] = system: SK-MEL-2 melanoma
[44] = system: SK-MEL-28 melanoma
[45] = system: SK-MEL-5 melanoma
[46] = system: SK-OV-3 ovarian
[47] = system: SN12C renal
[48] = system: SNB-19 CNS
[49] = system: SNB-75 CNS
[50] = system: SR leukemia
[51] = system: SW-620 colon
[52] = system: T-47D breast
[53] = system: TK-10 renal
[54] = system: U251 CNS
[55] = system: UACC-257 melanoma
[56] = system: UACC-62 melanoma
[57] = system: UO-31 renal

CS(=O)(=O)CCN(CC#N)Cc1ccc(-c2ccc3ncnc(Nc4ccc(OCc5cccc(F)c5)c(Cl)c4)c3c2)o1
GI50 [1]: 14.9 µM | TGI [1]: > 25 µM | GI50 [2]: 4.29 µM | TGI [2]: > 23.7 µM | GI50 [3]: 14.6 µM | TGI [3]: > 25 µM | GI50 [4]: 1.73 µM | TGI [4]: > 25 µM | GI50 [5]: 15.6 µM | TGI [5]: > 25 µM | GI50 [6]: 0.896 µM | TGI [6]: > 25 µM | GI50 [7]: 9.45 µM | TGI [7]: > 25 µM | GI50 [8]: > 19.1 µM | TGI [8]: > 25 µM | GI50 [9]: 10.5 µM | TGI [9]: > 25 µM | GI50 [10]: 0.313 µM | TGI [10]: > 25 µM | GI50 [11]: 15.1 µM | TGI [11]: > 25 µM | GI50 [12]: 11 µM | TGI [12]: > 25 µM | GI50 [13]: 10.2 µM | TGI [13]: > 25 µM | GI50 [14]: 11.2 µM | TGI [14]: > 25 µM | GI50 [15]: > 25 µM | TGI [15]: > 25 µM | GI50 [16]: 6.13 µM | TGI [16]: > 20.4 µM | GI50 [17]: 10.3 µM | TGI [17]: > 25 µM | GI50 [18]: 6.25 µM | TGI [18]: > 25 µM | GI50 [19]: 9.98 µM | TGI [19]: > 25 µM | GI50 [20]: 9.34 µM | TGI [20]: > 25 µM | GI50 [21]: 6.52 µM | TGI [21]: 19.8 µM | GI50 [22]: 11.7 µM | TGI [22]: > 25 µM | GI50 [23]: 14.9 µM | TGI [23]: > 25 µM | GI50 [24]: 8.66 µM | TGI [24]: > 25 µM | GI50 [25]: 8.35 µM | TGI [25]: > 25 µM | GI50 [26]: 11 µM | TGI [26]: > 25 µM | GI50 [27]: 8.81 µM | TGI [27]: > 25 µM | GI50 [28]: > 25 µM | TGI [28]: > 25 µM | GI50 [29]: 13.2 µM | TGI [29]: > 25 µM | GI50 [30]: 10.9 µM | TGI [30]: > 25 µM | GI50 [31]: 4.3 µM | TGI [31]: > 18.5 µM | GI50 [32]: 8.17 µM | TGI [32]: > 25 µM | GI50 [33]: 10.6 µM | TGI [33]: > 25 µM | GI50 [34]: 11.4 µM | TGI [34]: > 25 µM | GI50 [35]: 7.89 µM | TGI [35]: > 25 µM | GI50 [36]: 9.75 µM | TGI [36]: > 25 µM | GI50 [37]: 10.9 µM | TGI [37]: > 25 µM | GI50 [38]: 11.7 µM | TGI [38]: > 25 µM | GI50 [39]: 10.8 µM | TGI [39]: > 23.5 µM | GI50 [40]: 16 µM | TGI [40]: > 25 µM | GI50 [41]: 24.7 µM | TGI [41]: > 25 µM | GI50 [42]: > 25 µM | TGI [42]: > 25 µM | GI50 [43]: 17.3 µM | TGI [43]: > 25 µM | GI50 [44]: > 25 µM | TGI [44]: > 25 µM | GI50 [45]: 4.91 µM | TGI [45]: > 25 µM | GI50 [46]: 0.107 µM | TGI [46]: > 25 µM | GI50 [47]: 12.7 µM | TGI [47]: > 25 µM | GI50 [48]: > 25 µM | TGI [48]: > 25 µM | GI50 [49]: > 17.1 µM | TGI [49]: > 25 µM | GI50 [50]: 8.93 µM | TGI [50]: > 25 µM | GI50 [51]: 11.7 µM | TGI [51]: > 25 µM | GI50 [52]: 5.48 µM | TGI [52]: > 23.7 µM | GI50 [53]: 1.19 µM | TGI [53]: > 25 µM | GI50 [54]: 15.2 µM | TGI [54]: > 25 µM | GI50 [55]: > 25 µM | TGI [55]: > 25 µM | GI50 [56]: > 22.3 µM | TGI [56]: > 25 µM | GI50 [57]: 5.56 µM | TGI [57]: > 25 µM
